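Method: 48-hour compound exposure of cells in 96-well plates, five concentrations, linear interpolation of endpoints. At the GI50, growth is halved.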 Active and inactive are the calls of the source. No stated cut-off is given here; in the data, active = GI50 up to about 1.1 µM and inactive = higher.
Columns and labels:
Assay in all cases: growth of human tumour cells (NCI), 48 h
SN12C = test system: SN12C
SW-620 = test system: SW-620
SK-MEL-2 = test system: SK-MEL-2
HCT-116 = test system: HCT-116
Malme-3M = test system: Malme-3M
K562 = test system: K562
HOP-62 = test system: HOP-62
Hs-578T = test system: Hs-578T
SR = test system: SR
RPMI-8226 = test system: RPMI-8226
HCT-15 = test system: HCT-15
NCI-H23 = test system: NCI-H23
T47D = test system: T47D
PC-3 = test system: PC-3
SK-MEL-28 = test system: SK-MEL-28
MDA-N = test system: MDA-N
MDA-MB-231 = test system: MDA-MB-231
SF-268 = test system: SF-268
OVCAR-5 = test system: OVCAR-5
CCRF-CEM = test system: CCRF-CEM

Row | SMILES | GI50 (SN12C) | GI50 (SW-620) | GI50 (SK-MEL-2) | GI50 (HCT-116) | GI50 (Malme-3M) | GI50 (K562) | GI50 (HOP-62) | GI50 (Hs-578T) | GI50 (SR) | GI50 (RPMI-8226) | GI50 (HCT-15) [µM] | GI50 (NCI-H23) | GI50 (T47D) | GI50 (PC-3) | GI50 (SK-MEL-28) | GI50 (MDA-N) | GI50 (MDA-MB-231) | GI50 (SF-268) | GI50 (OVCAR-5) | GI50 (CCRF-CEM)
1 | Oc1ccccc1/C=N/N1C(=S)N(C23CC4CC(CC(C4)C2)C3)C(=N\c2ccccc2)/C1=N/c1ccccc1 | > 100 µM (inactive) | > 100 µM (inactive) | > 100 µM (inactive) | 14.1 µM (inactive) | > 100 µM (inactive) | 4.46 µM (inactive) | > 100 µM (inactive) | > 100 µM (inactive) | 43.3 µM (inactive) | 6.15 µM (inactive) | > 100 | > 100 µM (inactive) | 9.35 µM (inactive) | 8.38 µM (inactive) | > 100 µM (inactive) | > 100 µM (inactive) | 8.04 µM (inactive) | > 100 µM (inactive) | > 100 µM (inactive) | 
2 | Nc1ccc(-c2nc3cc(F)ccc3s2)cc1 | > 100 µM (inactive) | > 100 µM (inactive) | 30.8 µM (inactive) | > 69.8 µM (inactive) | > 100 µM (inactive) | > 100 µM (inactive) | 18.3 µM (inactive) | 37.7 µM (inactive) | 5.96 µM (inactive) | > 100 µM (inactive) | 17.6 | 1.43 µM (inactive) | 0.424 µM (active) | 16.5 µM (inactive) | > 100 µM (inactive) | > 100 µM (inactive) | 22.5 µM (inactive) | 31 µM (inactive) | 26.4 µM (inactive) | > 45.6 µM (inactive)
3 | O=C1c2cc(Cl)ccc2-n2c(noc2=O)C2CSCN12 (centres undefined) | > 100 µM (inactive) | > 100 µM (inactive) | > 100 µM (inactive) | > 100 µM (inactive) | > 100 µM (inactive) | 55.7 µM (inactive) | > 100 µM (inactive) | > 100 µM (inactive) | > 100 µM (inactive) | > 100 µM (inactive) | > 100 |  | > 100 µM (inactive) | > 100 µM (inactive) | > 100 µM (inactive) | > 100 µM (inactive) | > 100 µM (inactive) | > 100 µM (inactive) | > 100 µM (inactive) | > 100 µM (inactive)
4 | COc1ccc(Oc2ccc3cc4c(cc3c2O)OCO4)c2cc(C)oc12 | 29.6 µM (inactive) | 27.2 µM (inactive) | 18.5 µM (inactive) | 26.4 µM (inactive) | 24.2 µM (inactive) | 14.6 µM (inactive) | 41.1 µM (inactive) | 37.7 µM (inactive) | 19.3 µM (inactive) | 14.9 µM (inactive) | 22.1 | 26.4 µM (inactive) | 12.3 µM (inactive) | 24.8 µM (inactive) | 47.5 µM (inactive) | 29.6 µM (inactive) | 33.9 µM (inactive) | 36 µM (inactive) | 59 µM (inactive) | 21.7 µM (inactive)
5 | O=c1[nH]c2nc(S)nc(S)c2[nH]1 | > 100 µM (inactive) | > 100 µM (inactive) | > 100 µM (inactive) | > 100 µM (inactive) | > 100 µM (inactive) | > 100 µM (inactive) | > 100 µM (inactive) | > 100 µM (inactive) | > 100 µM (inactive) | > 100 µM (inactive) | > 100 | > 100 µM (inactive) | > 100 µM (inactive) | > 100 µM (inactive) | > 100 µM (inactive) | > 100 µM (inactive) | > 100 µM (inactive) | > 100 µM (inactive) | > 100 µM (inactive) | 
6 | CC(=O)OC1/C(=C/c2ccc([N+](=O)[O-])cc2)C[C@H]2[C@@H]3CC=C4C[C@@H](OC(C)=O)CC[C@]4(C)[C@H]3CC[C@]12C (some centres undefined) | > 100 µM (inactive) | > 100 µM (inactive) | > 61.5 µM (inactive) | > 100 µM (inactive) | > 100 µM (inactive) |  | 34.7 µM (inactive) | 74.5 µM (inactive) | 5.13 µM (inactive) | > 71.3 µM (inactive) | > 100 | > 100 µM (inactive) | > 100 µM (inactive) | > 100 µM (inactive) | > 100 µM (inactive) | > 100 µM (inactive) | 58.3 µM (inactive) | 51.4 µM (inactive) | > 100 µM (inactive) | > 40.6 µM (inactive)
7 | FC(F)(F)c1ccc2c(c1)nc(Cc1ccc(Cl)c(Cl)c1)n2CC1CCCN2CCCCC12 (centres undefined) | 20.3 µM (inactive) | 34.8 µM (inactive) | 35.5 µM (inactive) | 14.8 µM (inactive) | 13.6 µM (inactive) | 32.5 µM (inactive) | 31 µM (inactive) | 10.9 µM (inactive) | 23.2 µM (inactive) | 57 µM (inactive) | 30.8 |  | 29 µM (inactive) | 30.5 µM (inactive) | 21.1 µM (inactive) | 18.2 µM (inactive) | 15.3 µM (inactive) | 27.8 µM (inactive) | 17.4 µM (inactive) | 

Reference: ChEMBL document CHEMBL1201862, “PubChem BioAssay data set” (2004)
